From ChEMBL document CHEMBL3797051 (Medchemcomm, 2016)

What was measured:
Histone deacetylase 8 [1] = biological target: T1, Histone deacetylase 8 (Homo sapiens, UniProt Q9BY41); test: Inhibition of recombinant human HDAC8 expressed in Escherichia coli assessed as inhibition constant ki,1 using fluorogenic AC-LGK-tfa-AMC as substrate measured after 60 mins by fluorescence analysis
T1 sequence (Q9BY41 whole entry): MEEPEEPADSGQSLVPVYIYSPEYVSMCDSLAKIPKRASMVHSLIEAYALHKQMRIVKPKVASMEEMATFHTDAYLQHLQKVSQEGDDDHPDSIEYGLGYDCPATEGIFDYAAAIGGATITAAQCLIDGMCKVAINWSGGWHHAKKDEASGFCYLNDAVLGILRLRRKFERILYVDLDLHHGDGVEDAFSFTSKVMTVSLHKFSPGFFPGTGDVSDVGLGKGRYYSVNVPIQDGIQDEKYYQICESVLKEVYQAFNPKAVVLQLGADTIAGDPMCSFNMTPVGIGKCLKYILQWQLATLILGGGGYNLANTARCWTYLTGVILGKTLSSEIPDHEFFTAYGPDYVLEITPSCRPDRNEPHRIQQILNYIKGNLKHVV

Histone deacetylase 4 = Histone deacetylase 4 (Homo sapiens, UniProt P56524); test: Inhibition of N-terminal GST-tagged recombinant human HDAC4 assessed as hydrolase activity using fluorogenic […] as substrate measured after 60 mins by fluorescence analysis
Histone deacetylase 4, sequence (P56524 whole entry): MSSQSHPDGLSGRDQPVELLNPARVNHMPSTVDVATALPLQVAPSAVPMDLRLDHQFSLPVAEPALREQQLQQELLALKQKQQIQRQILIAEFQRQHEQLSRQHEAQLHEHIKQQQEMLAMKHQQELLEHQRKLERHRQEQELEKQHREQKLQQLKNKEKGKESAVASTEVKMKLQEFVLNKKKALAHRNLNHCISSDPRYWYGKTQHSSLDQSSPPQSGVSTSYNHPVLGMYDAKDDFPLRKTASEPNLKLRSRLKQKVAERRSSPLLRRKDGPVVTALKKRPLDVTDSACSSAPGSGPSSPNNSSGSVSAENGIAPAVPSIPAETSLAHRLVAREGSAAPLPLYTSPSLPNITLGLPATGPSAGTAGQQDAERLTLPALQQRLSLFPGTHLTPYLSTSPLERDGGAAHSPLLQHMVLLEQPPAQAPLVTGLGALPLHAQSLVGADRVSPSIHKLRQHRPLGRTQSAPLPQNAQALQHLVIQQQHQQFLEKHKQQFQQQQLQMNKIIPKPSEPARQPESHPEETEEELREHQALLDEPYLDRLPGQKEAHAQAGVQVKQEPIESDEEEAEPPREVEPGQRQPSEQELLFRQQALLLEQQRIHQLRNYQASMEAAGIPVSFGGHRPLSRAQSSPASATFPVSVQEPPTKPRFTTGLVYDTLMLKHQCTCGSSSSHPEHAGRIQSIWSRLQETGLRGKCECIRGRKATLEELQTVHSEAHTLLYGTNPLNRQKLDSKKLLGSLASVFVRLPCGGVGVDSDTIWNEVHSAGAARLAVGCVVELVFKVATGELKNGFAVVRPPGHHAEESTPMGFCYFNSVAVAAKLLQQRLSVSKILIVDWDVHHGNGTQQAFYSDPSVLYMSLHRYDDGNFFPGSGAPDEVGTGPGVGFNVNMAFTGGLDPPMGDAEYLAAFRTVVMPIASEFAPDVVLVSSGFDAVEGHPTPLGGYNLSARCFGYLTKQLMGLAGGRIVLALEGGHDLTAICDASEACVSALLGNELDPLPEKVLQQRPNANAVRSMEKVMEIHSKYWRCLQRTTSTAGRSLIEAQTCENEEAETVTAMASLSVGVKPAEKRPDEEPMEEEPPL

Histone deacetylase 8 [2] = biological target: T1, Histone deacetylase 8; test: Inhibition of recombinant human HDAC8 expressed in Escherichia coli assessed as hydrolase activity using fluorogenic AC-LGK-tfa-AMC as substrate measured after 60 mins by fluorescence analysis
[3] = biological target: T2, Protein deacetylase HDAC6 (Homo sapiens, UniProt Q9UBN7); test: Inhibition of His-tagged recombinant human HDAC6 expressed in insect cells assessed as hydrolase activity using fluorogenic AC-LGK-ac-AMC as substrate measured after 60 mins by fluorescence analysis
T2 sequence (Q9UBN7 whole entry): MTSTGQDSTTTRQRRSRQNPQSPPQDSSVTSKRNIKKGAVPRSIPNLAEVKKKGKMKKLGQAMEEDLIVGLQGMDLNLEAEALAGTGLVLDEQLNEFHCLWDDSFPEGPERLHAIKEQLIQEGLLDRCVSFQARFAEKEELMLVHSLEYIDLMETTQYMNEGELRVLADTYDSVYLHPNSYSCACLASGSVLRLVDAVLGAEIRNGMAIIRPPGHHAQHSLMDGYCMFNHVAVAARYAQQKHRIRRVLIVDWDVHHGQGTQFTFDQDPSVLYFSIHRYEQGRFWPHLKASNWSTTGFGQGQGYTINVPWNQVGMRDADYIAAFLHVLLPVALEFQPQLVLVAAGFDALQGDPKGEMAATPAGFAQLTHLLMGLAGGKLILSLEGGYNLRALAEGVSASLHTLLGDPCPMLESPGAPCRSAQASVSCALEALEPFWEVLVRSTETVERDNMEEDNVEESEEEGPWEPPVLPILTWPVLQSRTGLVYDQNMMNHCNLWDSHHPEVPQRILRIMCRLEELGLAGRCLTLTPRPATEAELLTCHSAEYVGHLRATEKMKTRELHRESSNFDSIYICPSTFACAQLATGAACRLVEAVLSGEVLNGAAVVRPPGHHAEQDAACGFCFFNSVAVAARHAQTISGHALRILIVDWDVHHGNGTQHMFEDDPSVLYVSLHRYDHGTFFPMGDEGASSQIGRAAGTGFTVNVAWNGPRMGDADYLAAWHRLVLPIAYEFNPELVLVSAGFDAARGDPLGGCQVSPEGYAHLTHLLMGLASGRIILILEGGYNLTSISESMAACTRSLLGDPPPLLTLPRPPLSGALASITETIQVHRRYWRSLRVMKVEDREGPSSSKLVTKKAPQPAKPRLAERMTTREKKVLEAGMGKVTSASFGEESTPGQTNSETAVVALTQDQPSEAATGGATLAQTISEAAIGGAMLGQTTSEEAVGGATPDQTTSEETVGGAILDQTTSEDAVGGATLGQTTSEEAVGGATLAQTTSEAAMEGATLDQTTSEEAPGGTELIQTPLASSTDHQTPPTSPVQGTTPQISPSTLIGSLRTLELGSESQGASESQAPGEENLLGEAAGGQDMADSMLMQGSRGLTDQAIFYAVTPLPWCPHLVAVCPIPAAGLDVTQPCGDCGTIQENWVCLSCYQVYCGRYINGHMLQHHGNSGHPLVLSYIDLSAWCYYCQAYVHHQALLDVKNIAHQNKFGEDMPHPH

Structure (SMILES): O=C(CCCCCCC(=O)C(F)(F)F)Nc1ccccc1
- Ki (Histone deacetylase 8 [1]): 7300 nM
- Ki (Histone deacetylase 4): 5.1 nM
- Ki (Histone deacetylase 8 [2]): 33 nM
- Ki [3]: 4500 nM
